How the values were obtained:
HOP-62 = test: In vitro cytostatic effect (SRB): HOP-62, Lung cancer; settings: for GI50 / TGI: 48-hour incubation; for CC50: read-out: LC50, 48-hour incubation
UACC-257 = test: In vitro cytostatic effect (SRB): UACC-257, Melanoma; settings: for GI50 / TGI: 48-hour incubation; for CC50: read-out: LC50, 48-hour incubation
NCI-H522 = test: In vitro cytostatic effect (SRB): NCI-H522, Lung cancer; settings: for GI50 / TGI: 48-hour incubation; for CC50: read-out: LC50, 48-hour incubation
TK-10 = test: In vitro cytostatic effect (SRB): TK-10, Kidney cancer; settings: for GI50 / TGI: 48-hour incubation; for CC50: read-out: LC50, 48-hour incubation
A549/ATCC = test: In vitro cytostatic effect (SRB): A549/ATCC, Lung cancer; settings: for GI50 / TGI: 48-hour incubation; for CC50: read-out: LC50, 48-hour incubation
SW-620 = test: In vitro cytostatic effect (SRB): SW-620, Intestinal cancer; settings: for GI50 / TGI: 48-hour incubation; for CC50: read-out: LC50, 48-hour incubation
UO-31 = test: In vitro cytostatic effect (SRB): UO-31, Kidney cancer
HCC-2998 = test: In vitro cytostatic effect (SRB): HCC-2998, Intestinal cancer
MDA-MB-435 = test: In vitro cytostatic effect (SRB): MDA-MB-435, Breast cancer; settings: for GI50 / TGI: 48-hour incubation; for CC50: read-out: LC50, 48-hour incubation
SK-MEL-5 = test: In vitro cytostatic effect (SRB): SK-MEL-5, Melanoma; settings: for GI50 / TGI: 48-hour incubation; for CC50: read-out: LC50, 48-hour incubation
SK-MEL-2 = test: In vitro cytostatic effect (SRB): SK-MEL-2, Melanoma; settings: for GI50 / TGI: 48-hour incubation; for CC50: read-out: LC50, 48-hour incubation
HCT-116 = test: In vitro cytostatic effect (SRB): HCT-116, Intestinal cancer; settings: for GI50 / TGI: 48-hour incubation; for CC50: read-out: LC50, 48-hour incubation
COLO205 = test: In vitro cytostatic effect (SRB): COLO205, Intestinal cancer; settings: for GI50 / TGI: 48-hour incubation; for CC50: read-out: LC50, 48-hour incubation
NCI/ADR-RES = test: In vitro cytostatic effect (SRB): NCI/ADR-RES, Breast cancer; settings: for CC50: read-out: LC50, 48-hour incubation
CCRF-CEM = test: In vitro cytostatic effect (SRB): CCRF-CEM, Leukemia; settings: for CC50: read-out: LC50, 48-hour incubation
PC-3 = test: In vitro cytostatic effect (SRB): PC-3, Prostate cancer; settings: for GI50 / TGI: 48-hour incubation; for CC50: read-out: LC50, 48-hour incubation
DU-145 = test: In vitro cytostatic effect (SRB): DU-145, Prostate cancer; settings: for GI50 / TGI: 48-hour incubation; for CC50: read-out: LC50, 48-hour incubation
SK-MEL-28 = test: In vitro cytostatic effect (SRB): SK-MEL-28, Melanoma; settings: for GI50 / TGI: 48-hour incubation; for CC50: read-out: LC50, 48-hour incubation
HS 578T = test: In vitro cytostatic effect (SRB): HS 578T, Breast cancer; settings: for GI50 / TGI: 48-hour incubation; for CC50: read-out: LC50, 48-hour incubation
NCI-H226 = test: In vitro cytostatic effect (SRB): NCI-H226, Lung cancer; settings: for GI50 / TGI: 48-hour incubation; for CC50: read-out: LC50, 48-hour incubation
RPMI-8226 = test: In vitro cytostatic effect (SRB): RPMI-8226, Leukemia; settings: for GI50 / TGI: 48-hour incubation; for CC50: read-out: LC50, 48-hour incubation
SK-OV-3 = test: In vitro cytostatic effect (SRB): SK-OV-3, Ovarian cancer; settings: for GI50 / TGI: 48-hour incubation; for CC50: read-out: LC50, 48-hour incubation
SF-268 = test: In vitro cytostatic effect (SRB): SF-268, Cancer of the central nervous system; settings: for GI50 / TGI: 48-hour incubation; for CC50: read-out: LC50, 48-hour incubation
EKVX = test: In vitro cytostatic effect (SRB): EKVX, Lung cancer; settings: for GI50 / TGI: 48-hour incubation
K-562 = test: In vitro cytostatic effect (SRB): K-562, Leukemia; settings: for GI50 / TGI: 48-hour incubation; for CC50: read-out: LC50, 48-hour incubation
SNB-19 = test: In vitro cytostatic effect (SRB): SNB-19, Cancer of the central nervous system; settings: for GI50 / TGI: 48-hour incubation; for CC50: read-out: LC50, 48-hour incubation
IGROV1 = test: In vitro cytostatic effect (SRB): IGROV1, Ovarian cancer; settings: for GI50 / TGI: 48-hour incubation; for CC50: read-out: LC50, 48-hour incubation
OVCAR-4 = test: In vitro cytostatic effect (SRB): OVCAR-4, Ovarian cancer; settings: for GI50 / TGI: 48-hour incubation; for CC50: read-out: LC50, 48-hour incubation
[1] = read-out: LC50, 48-hour incubation

## CCCCCCCCCCCCCCCCCCOC(COP(=O)(O)OCC1OC(n2cc(F)c(=O)[nH]c2=O)CC1O)COP(=O)(O)OCC1OC(n2ccc(N)nc2=O)C(O)C1O (racemic) [NSC 698688-A/1, arabinocytidylyl-(5′→1)-2-O-octadecyl-rac-glycerylyl-(3→5′)-5-fluoro-2′-deoxyuridine]
HOP-62
  GI50: 0.699 µM
  TGI: >1.00E − 04 mol/l
  CC50: > 100 µM
UACC-257
  GI50: 49.8 µM
  TGI: >1.00E − 04 mol/l
  CC50: > 100 µM
NCI-H522
  GI50: 16.2 µM
  TGI: >1.00E − 04 mol/l
  CC50: > 100 µM
TK-10
  GI50: 22.9 µM
  TGI: >1.00E − 04 mol/l
  CC50: > 100 µM
A549/ATCC
  GI50: 0.346 µM
  TGI: >1.00E − 04 mol/l
  CC50: > 100 µM
SW-620
  GI50: 62.8 µM
  TGI: >1.00E − 04 mol/l
  CC50: > 100 µM
UO-31; 48-hour incubation
  GI50: 21.3 µM
  TGI: >1.00E − 04 mol/l
UO-31; [1]
  CC50: > 100 µM
HCC-2998; 48-hour incubation
  GI50: 0.0588 µM
  TGI: 3.50E − 05 mol/l
HCC-2998; [1]
  CC50: > 100 µM
MDA-MB-435
  GI50: 33.8 µM
  TGI: >1.00E − 04 mol/l
  CC50: > 100 µM
SK-MEL-5
  GI50: > 100 µM
  TGI: >1.00E − 04 mol/l
  CC50: > 100 µM
SK-MEL-2
  GI50: > 100 µM
  TGI: >1.00E − 04 mol/l
  CC50: > 100 µM
HCT-116
  GI50: 4.9 µM
  TGI: >1.00E − 04 mol/l
  CC50: > 100 µM
COLO205
  GI50: 10.5 µM
  TGI: 3.88E − 05 mol/l
  CC50: > 100 µM
NCI/ADR-RES; 48-hour incubation
  TGI: >1.00E − 04 mol/l
NCI/ADR-RES
  CC50: > 100 µM
CCRF-CEM; 48-hour incubation
  GI50: 1.28 µM
  TGI: >1.00E − 04 mol/l
CCRF-CEM
  CC50: > 100 µM
PC-3
  GI50: 11.5 µM
  TGI: 8.64E − 05 mol/l
  CC50: > 100 µM
DU-145
  GI50: 2.68 µM
  TGI: >1.00E − 04 mol/l
  CC50: > 100 µM
SK-MEL-28
  GI50: 57.8 µM
  TGI: >1.00E − 04 mol/l
  CC50: > 100 µM
HS 578T
  GI50: > 100 µM
  TGI: >1.00E − 04 mol/l
  CC50: > 100 µM
NCI-H226
  GI50: 75.9 µM
  TGI: >1.00E − 04 mol/l
  CC50: > 100 µM
RPMI-8226
  GI50: 1.65 µM
  TGI: >1.00E − 04 mol/l
  CC50: > 100 µM
SK-OV-3
  GI50: 36.3 µM
  TGI: >1.00E − 04 mol/l
  CC50: > 100 µM
SF-268
  GI50: 0.745 µM
  TGI: >1.00E − 04 mol/l
  CC50: > 100 µM
EKVX
  GI50: > 100 µM
  TGI: >1.00E − 04 mol/l
EKVX; [1]
  CC50: > 100 µM
K-562
  GI50: 3.35 µM
  TGI: >1.00E − 04 mol/l
  CC50: > 100 µM
SNB-19
  GI50: 0.919 µM
  TGI: 2.37E − 05 mol/l
  CC50: 64.1 µM
IGROV1
  GI50: 13.6 µM
  TGI: >1.00E − 04 mol/l
  CC50: > 100 µM
OVCAR-4
  GI50: 58.5 µM
  TGI: >1.00E − 04 mol/l
  CC50: > 100 µM

## Nc1ccn(C2CCC(COP(=O)(O)OCC(O)COP(=O)(O)OCC3OC(n4cc(F)c(=O)[nH]c4=O)CC3O)O2)c(=O)n1 (racemic) [NSC 704533, 2′,3′-didesoxycytidylyl-(5′→1)-racglycerylyl-(3→5′)-5-fluoro-2′-desoxyuridine]
HOP-62
  GI50: 0.902 µM
  TGI: >1.00E − 04 mol/l
  CC50: > 100 µM
UACC-257
  GI50: > 100 µM
  TGI: >1.00E − 04 mol/l
  CC50: > 100 µM
NCI-H522
  GI50: 0.746 µM
  TGI: >1.00E − 04 mol/l
  CC50: > 100 µM
TK-10
  GI50: 6.25 µM
  TGI: >1.00E − 04 mol/l
  CC50: > 100 µM
A549/ATCC
  GI50: 0.0477 µM
  TGI: >1.00E − 04 mol/l
  CC50: > 100 µM
SW-620
  GI50: > 100 µM
  TGI: >1.00E − 04 mol/l
  CC50: > 100 µM
MDA-MB-435
  GI50: 4.76 µM
  TGI: >1.00E − 04 mol/l
  CC50: > 100 µM
SK-MEL-5
  GI50: 0.689 µM
  TGI: >1.00E − 04 mol/l
  CC50: > 100 µM
SK-MEL-2
  GI50: 79.4 µM
  TGI: >1.00E − 04 mol/l
  CC50: > 100 µM
HCT-116
  GI50: 0.374 µM
  TGI: >1.00E − 04 mol/l
  CC50: > 100 µM
COLO205
  GI50: 17.7 µM
  TGI: >1.00E − 04 mol/l
  CC50: > 100 µM
NCI/ADR-RES; 48-hour incubation
  GI50: 0.695 µM
  TGI: >1.00E − 04 mol/l
NCI/ADR-RES
  CC50: > 100 µM
CCRF-CEM; 48-hour incubation
  TGI: >1.00E − 04 mol/l
CCRF-CEM
  CC50: > 100 µM
PC-3
  GI50: 2.28 µM
  TGI: >1.00E − 04 mol/l
  CC50: > 100 µM
DU-145
  GI50: 0.158 µM
  TGI: >1.00E − 04 mol/l
  CC50: > 100 µM
SK-MEL-28
  GI50: 37.9 µM
  TGI: >1.00E − 04 mol/l
  CC50: > 100 µM
HS 578T
  GI50: 0.732 µM
  TGI: >1.00E − 04 mol/l
  CC50: > 100 µM
NCI-H226
  GI50: > 100 µM
  TGI: >1.00E − 04 mol/l
  CC50: > 100 µM
RPMI-8226
  GI50: 11 µM
  TGI: >1.00E − 04 mol/l
  CC50: > 100 µM
SK-OV-3
  GI50: 44.3 µM
  TGI: >1.00E − 04 mol/l
  CC50: > 100 µM
SF-268
  GI50: < 0.01 µM
  TGI: >1.00E − 04 mol/l
  CC50: > 100 µM
EKVX
  GI50: > 100 µM
  TGI: >1.00E − 04 mol/l
K-562
  GI50: 2.57 µM
  TGI: >1.00E − 04 mol/l
  CC50: > 100 µM
SNB-19
  GI50: 0.25 µM
  TGI: >1.00E − 04 mol/l
  CC50: > 100 µM
IGROV1
  GI50: 68 µM
  TGI: >1.00E − 04 mol/l
  CC50: > 100 µM
OVCAR-4
  GI50: > 100 µM
  TGI: >1.00E − 04 mol/l
  CC50: > 100 µM

From patent US6787525B1, “Glyceryl nucleotides, method for the production thereof and their use” (priority 1998, dated 2004)
